# Laboratory results as given in PubChem BioAssay (NCI).
#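 In this assay, cells in 96-well plates receive the compound at five concentrations for 48 hours. Endpoints are linearly interpolated between the surrounding concentrations. At the GI50, growth is halved. TGI: total growth inhibition.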
# How the values were obtained:
# Assay in all cases: NCI-60 cell line screen, 48 h
# [1] = tested on: SF-539 CNS
# [2] = tested on: NCI-H522 lung
# [3] = tested on: CCRF-CEM leukemia
# [4] = tested on: RXF 393 renal
# [5] = tested on: OVCAR-3 ovarian
# [6] = tested on: UACC-62 melanoma
# [7] = tested on: PC-3 prostate
# [8] = tested on: HOP-62 NSCLC
# [9] = tested on: SR leukemia
# [10] = tested on: KM12 colon
SMILES,TGI [1] [µM],TGI [2] [µM],TGI [3] [µM],TGI [4] [µM],TGI [5] [µM],TGI [6] [µM],TGI [7] [µM],TGI [8] [µM],TGI [9] [µM],TGI [10] [µM],GI50 [1] [µM],GI50 [2] [µM],GI50 [3] [µM],GI50 [4] [µM],GI50 [5] [µM],GI50 [6] [µM],GI50 [7] [µM],GI50 [8] [µM],GI50 [9] [µM],GI50 [10] [µM]
C/C(O)=C/c1nc2ccc([N+](=O)[O-])cc2nc1/C=C(/C)O,> 100,70,61.9,> 100,> 100,> 100,> 100,> 100,47,> 100,–,–,–,–,–,–,–,–,–,–
Cc1cc(=O)oc2cc(O)ccc12,> 100,> 100,> 100,> 100,> 100,> 100,> 100,> 100,> 100,> 100,–,–,–,–,–,–,–,–,–,–
NNc1nncn1N,> 100,> 100,33.2,> 100,> 100,> 100,> 100,> 100,> 100,> 100,–,–,–,–,–,–,–,–,–,–
CC(=O)c1cc2ccccc2n(O)c1=N,> 100,> 100,> 100,> 100,> 100,> 100,> 100,> 100,> 100,> 100,–,–,–,–,–,–,–,–,–,–
CN(Cc1cnc2nc(N)nc(N)c2n1)c1ccc(C(=O)NC(CCC(=O)NC(P(=O)(O)O)P(=O)(O)O)C(=O)O)cc1 (stereo not given),> 100,> 100,> 100,> 100,> 100,> 100,> 100,> 100,> 100,> 100,–,–,–,–,–,–,–,–,–,–
O=C1/C(=C2\Sc3c(ccc(Cl)c3Cl)C2=O)Sc2c1ccc(Cl)c2Cl,> 100,> 100,> 100,> 100,> 100,> 100,> 100,> 100,> 100,> 100,–,–,–,–,–,–,–,–,–,–
[N-]=[N+]=Nc1ccc(CNc2cc(=O)[nH]c(=O)[nH]2)cc1,> 100,> 100,> 100,> 100,> 100,> 100,> 100,> 100,> 100,> 100,–,–,–,–,–,–,–,–,–,–
CC(=O)N1CCN(C23OC4(N5CCN(C(C)=O)CC5)C5C6CC(C7C6C4C72)C53)CC1 (stereo not given),> 100,> 100,> 100,> 100,> 100,> 100,> 100,> 100,> 100,> 100,–,–,–,–,–,–,–,–,–,–
Cc1cc(C)n(CN(Cn2nc(C)cc2C)C2CCCCC2)n1,29.1,43.8,44.8,50.9,56.9,41.7,60,69.6,> 100,49.2,–,–,–,–,–,–,–,–,–,–
COc1ccc(C2C(C#N)=C(S)N(C3OC(CO)C(O)C(O)C3O)C(c3ccccc3)=C2C(C)=O)cc1 (stereo not given),> 100,88.9,> 100,> 100,> 100,> 100,> 100,> 100,> 100,> 100,–,–,–,–,–,–,–,–,–,–
Cc1ccc(-c2n[nH]c(=O)[nH]2)cc1[N+](=O)[O-],> 100,> 100,> 100,> 100,> 100,> 100,> 100,> 100,> 100,> 100,–,–,–,–,–,–,–,–,–,–
C=C(C)C1CC=C(C)C2(C1)OCC(C)(C)C(C)O2 (stereo not given),48,46.4,83.4,27.3,29.9,30.4,> 100,31.8,43.6,32.9,–,–,–,–,–,–,–,–,–,–
O=c1[nH]c(Nc2cccc(Cl)c2)nc2nc[nH]c12,> 100,> 100,> 100,> 100,> 100,> 100,> 100,> 100,> 100,> 100,–,–,–,–,–,–,–,–,–,–
COc1cc2c(/C=C3/C(=O)N(c4ccccc4)c4ccccc43)c(Cl)[nH]c2cc1C,5.86,6.24,> 38.5,> 81.4,9.66,27.9,> 33.3,> 23.6,30.5,8.07,–,–,–,–,–,–,–,–,–,–
O=c1[nH]nc(Cc2ccccc2)n1-n1cnnc1,> 100,> 100,> 100,> 100,> 100,> 100,> 100,> 100,> 100,> 100,–,–,–,–,–,–,–,–,–,–
CC(C)CNC(=O)Cn1c(-c2ccccc2)cc2ccccc21,> 100,> 100,> 100,> 100,> 100,> 100,> 100,> 100,> 100,> 100,–,–,–,–,–,–,–,–,–,–
CC1(COS(=O)(=O)OCC2(C)COS(=O)(=O)OC2)COS(=O)(=O)OC1,> 100,> 100,> 64.4,> 100,> 100,> 100,> 100,> 100,> 56.9,> 77.3,–,–,–,–,–,–,–,–,–,–
COC(=O)[C@@H]1C[C@@]2(C3C=CN(C(=O)C(F)(F)F)C=C3)c3ccccc3N(C(=O)C(F)(F)F)[C@H]2N1C(=O)OC,> 100,> 100,> 100,60.4,> 100,> 100,> 100,> 100,> 100,> 100,–,–,–,–,–,–,–,–,–,–
O=c1oc2ccc(Cl)cc2cc1-c1cn2cc(Cl)ccc2n1,> 100,11.2,> 100,> 100,> 100,15,> 100,> 100,> 100,> 58.6,–,–,–,–,–,–,–,–,–,–
c1ccc2c(Cc3nnc4sc(SSc5nn6c(Cc7c[nH]c8ccccc78)nnc6s5)nn34)c[nH]c2c1,50.8,40,> 100,50.9,29.2,33.7,> 100,30.2,41.7,70.3,–,–,–,–,–,–,–,–,–,–
COc1ccc(C(=O)N2c3ccccc3Sc3ccccc32)c(C(F)(F)F)c1,0.995,14.5,> 100,> 100,28.1,> 100,> 100,> 100,76.9,34.4,0.271,0.32,0.0879,0.362,0.332,0.438,0.426,0.684,0.312,0.413
COc1ccc2nc3cc(Cl)ccc3c(NCCNCCCNC(=O)c3cc(-c4ccccc4)nc4ccccc34)c2c1,> 100,> 100,> 100,> 100,> 100,> 100,> 100,> 100,> 100,> 100,–,–,–,–,–,–,–,–,–,–
CC(C)N(C)C(=O)C12C3C4C1C1C2C3C41C#N (stereo not given),> 100,> 100,> 100,> 100,> 100,> 100,> 100,> 100,> 100,> 100,–,–,–,–,–,–,–,–,–,–
